The values that follow come from patent publication US8921328B2, “E-selectin antagonists” (GlycoMimetics, Inc., priority 2010, dated 2014).

Structures are written as SMILES. Bounds are passed on as bounds.

The target of one experiment is T1, E-selectin/IgG construct (Homo sapiens, UniProt P16581).
T1 construct: fused on or other part: IgG Fc part (human, since it is captured by goat anti-human Fc antibody), fused on as a capture handle
T1 sequence (P16581 22-175 limits assumed): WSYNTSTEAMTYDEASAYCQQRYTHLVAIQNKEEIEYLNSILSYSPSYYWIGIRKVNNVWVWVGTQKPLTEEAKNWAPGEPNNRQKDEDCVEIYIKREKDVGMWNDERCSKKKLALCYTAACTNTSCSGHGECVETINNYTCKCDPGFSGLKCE
Nature of the experiment: BIAcore surface plasmon resonance (SPR)-based assay, serial dilutions of the ligand (absolute KD). To be noted: twofold serial dilutions, 600 s association/600 s dissociation, HBS-P + 20 mm calcium + DMSO 5% v/v, read-out: KD values (absolute binding affinities). Here is the method:
(§1) The biological evaluation of the E-selectin antagonists was performed by surface plasmon resonance (SPR). For this purpose, an E-selectin/IgG construct was captured onto a BIAcore chip surface bearing covalently linked goat anti-human Fc specific antibody (Biacore Life Sciences, Uppsala, Sweden).
Evaluation of E-Selectin Antagonists with Surface Plasmon Resonance (SPR)-Based Assay
Ten twofold serial dilutions of the ligand were non-randomly injected. The E-selectin antagonists were diluted in running buffer (HBS-P supplemented with […] calcium and DMSO 5% v/v). Antagonist dilutions were injected with a 600 s association time and 600 s dissociation time at a flow rate of 20 μL/min over the reference and the active flow cell. […] In addition, to prevent the presence of residual traces of compound, a blank injection was performed between each injection of ligand dilution. DMSO calibration and double referencing were applied to correct bulk effects and other systematic artifacts (subtraction of reference surface and blank injection).
For `C[C@@H]1O[C@@H](O[C@@H]2[C@@H](C)C[C@@H](C(=O)NCc3cn(CCCn4ccc5cc([N+](=O)[O-])ccc54)nn3)C[C@H]2O[C@@H]2O[C@H](CO)[C@H](O)[C@H](O[C@@H](CC3CCCCC3)C(=O)O)[C@H]2OC(=O)c2ccccc2)[C@@H](O)[C@H](O)[C@@H]1O` [Product 58, (1R,3R,4R,5S)-3-[2-O-Benzoyl-3-O-((1S)-1-carboxy-2-cyclohexyl-ethyl)-(β-D-galactopyranosyl)oxy]-4-[(α-L-fucopyranosyl)oxy]-5-methyl-N-({1-[3-(5-nitro-1H-indol-1-yl)propyl]-1H-1,2,3-triazol-4-yl}methyl)cyclohexanecarboxamide], the Kd was determined as 57 nM.
Regarding `C[C@@H]1O[C@@H](O[C@@H]2[C@@H](C)C[C@@H](C(=O)NCCc3cn(CCCCn4ccc5cc([N+](=O)[O-])ccc54)nn3)C[C@H]2O[C@@H]2O[C@H](CO)[C@H](O)[C@H](O[C@@H](CC3CCCCC3)C(=O)O)[C@H]2OC(=O)c2ccccc2)[C@@H](O)[C@H](O)[C@@H]1O` [Product 63, (1R,3R,4R,5S)-3-[2-O-Benzoyl-3-O-((1S)-1-carboxy-2-cyclohexyl-ethyl)-(β-D-galactopyranosyl)oxy]-4-[(α-L-fucopyranosyl)oxy]-5-methyl-N-(2-{1-[4-(5-nitro-1H-indol-1-yl)butyl]-1H-1,2,3-triazol-4-yl}ethyl)cyclohexanecarboxamide], the Kd amounted to 49 nM.
Turning to `C[C@@H]1O[C@@H](O[C@@H]2[C@@H](C)C[C@@H](C(=O)NCCCc3cn(CCCn4ccc5cc([N+](=O)[O-])ccc54)nn3)C[C@H]2O[C@@H]2O[C@H](CO)[C@H](O)[C@H](O[C@@H](CC3CCCCC3)C(=O)O)[C@H]2OC(=O)c2ccccc2)[C@@H](O)[C@H](O)[C@@H]1O` [Product 66, (1R,3R,4R,5S)-3-[2-O-Benzoyl-3-O-((1S)-1-carboxy-2-cyclohexyl-ethyl)-(β-D-galactopyranosyl)oxy]-4-[(α-L-fucopyranosyl)oxy]-5-methyl-N-(3-{1-[3-(5-nitro-1H-indol-1-yl)propyl]-1H-1,2,3-triazol-4-yl}propyl)cyclohexanecarboxamide], the Kd turned out to be 30 nM.

The target of a further experiment is T1, E-selectin/IgG construct. Nature of the experiment: BIAcore SPR ranking procedure at a single concentration (relative binding affinity). The settings on record: SPR signal at single concentration 0.05 μM divided by molecular weight, normalized to internal standard; KD larger than for reference compound 64, however below 135 nM; read-out: KD values (relative* binding affinities, ranking procedure). Here is the method:
as §1
The ranking of the antagonists was performed in order to obtain qualitative information on the binding strength of twenty indole antagonists. For the ranking, SPR signals were recorded at a single concentration (0.05 μM) and divided by the molecular weight of the compounds. The result obtained was normalized to the response obtained with an internal standard (63) in order to avoid problems related to the measurement on different chips with different surfaces. DMSO calibration and double referencing were applied to correct bulk effects and other systematic artifacts (subtraction of reference surface and blank injection).
For the molecule `C[C@@H]1O[C@@H](O[C@@H]2[C@@H](C)C[C@@H](C(=O)NCc3cn(CCn4ccc5cc([N+](=O)[O-])ccc54)nn3)C[C@H]2O[C@@H]2O[C@H](CO)[C@H](O)[C@H](O[C@@H](CC3CCCCC3)C(=O)O)[C@H]2OC(=O)c2ccccc2)[C@@H](O)[C@H](O)[C@@H]1O` [Product 57, (1R,3R,4R,5S)-3-[2-O-Benzoyl-3-O-((1S)-1-carboxy-2-cyclohexyl-ethyl)-(β-D-galactopyranosyl)oxy]-4-[(α-L-fucopyranosyl)oxy]-5-methyl-N-({1-[2-(5-nitro-1H-indol-1-yl)ethyl]-1H-1,2,3-triazol-4-yl}methyl)cyclohexanecarboxamide], the Kd was greater than 89 nM.
Same read-out and setting: to `C[C@@H]1O[C@@H](O[C@@H]2[C@@H](C)C[C@@H](C(=O)NCc3cn(CCCCn4ccc5cc([N+](=O)[O-])ccc54)nn3)C[C@H]2O[C@@H]2O[C@H](CO)[C@H](O)[C@H](O[C@@H](CC3CCCCC3)C(=O)O)[C@H]2OC(=O)c2ccccc2)[C@@H](O)[C@H](O)[C@@H]1O` [Product 59, (1R,3R,4R,5S)-3-[2-O-Benzoyl-3-O-((1S)-1-carboxy-2-cyclohexyl-ethyl)-(β-D-galactopyranosyl)oxy]-4-[(α-L-fucopyranosyl)oxy]-5-methyl-N-({1-[4-(5-nitro-1H-indol-1-yl)butyl]-1H-1,2,3-triazol-4-yl}methyl)cyclohexanecarboxamide] belongs greater than 89 nM.
Turning to `C[C@@H]1O[C@@H](O[C@@H]2[C@@H](C)C[C@@H](C(=O)NCCc3cn(CCn4ccc5cc([N+](=O)[O-])ccc54)nn3)C[C@H]2O[C@@H]2O[C@H](CO)[C@H](O)[C@H](O[C@@H](CC3CCCCC3)C(=O)O)[C@H]2OC(=O)c2ccccc2)[C@@H](O)[C@H](O)[C@@H]1O` [Product 61, (1R,3R,4R,5S)-3-[2-O-Benzoyl-3-O-((1S)-1-carboxy-2-cyclohexyl-ethyl)-(β-D-galactopyranosyl)oxy]-4-[(α-L-fucopyranosyl)oxy]-5-methyl-N-(2-{1-[2-(5-nitro-1H-indol-1-yl)ethyl]-1H-1,2,3-triazol-4-yl}ethyl)cyclohexanecarboxamide], the Kd was greater than 89 nM.
As to `C[C@@H]1O[C@@H](O[C@@H]2[C@@H](C)C[C@@H](C(=O)NCCc3cn(CCCn4ccc5cc([N+](=O)[O-])ccc54)nn3)C[C@H]2O[C@@H]2O[C@H](CO)[C@H](O)[C@H](O[C@@H](CC3CCCCC3)C(=O)O)[C@H]2OC(=O)c2ccccc2)[C@@H](O)[C@H](O)[C@@H]1O` [Product 62, (1R,3R,4R,5S)-3-[2-O-Benzoyl-3-O-((1S)-1-carboxy-2-cyclohexyl-ethyl)-(β-D-galactopyranosyl)oxy]-4-[(α-L-fucopyranosyl)oxy]-5-methyl-N-(2-{1-[3-(5-nitro-1H-indol-1-yl)propyl]-1H-1,2,3-triazol-4-yl}ethyl)cyclohexanecarboxamide], the dissociation constant (Kd) was greater than 89 nM.
Consider `C[C@@H]1O[C@@H](O[C@@H]2[C@@H](C)C[C@@H](C(=O)NCCCc3cn(CCn4ccc5cc([N+](=O)[O-])ccc54)nn3)C[C@H]2O[C@@H]2O[C@H](CO)[C@H](O)[C@H](O[C@@H](CC3CCCCC3)C(=O)O)[C@H]2OC(=O)c2ccccc2)[C@@H](O)[C@H](O)[C@@H]1O` [Product 65, (1R,3R,4R,5S)-3-[2-O-Benzoyl-3-O-((1S)-1-carboxy-2-cyclohexyl-ethyl)-(β-D-galactopyranosyl)oxy]-4-[(α-L-fucopyranosyl)oxy]-5-methyl-N-(3-{1-[2-(5-nitro-1H-indol-1-yl)ethyl]-1H-1,2,3-triazol-4-yl}propyl)cyclohexanecarboxamide], for which the Kd was greater than 89 nM.
As to `C[C@@H]1O[C@@H](O[C@@H]2[C@@H](C)C[C@@H](C(=O)NCCCc3cn(CCCCn4ccc5cc([N+](=O)[O-])ccc54)nn3)C[C@H]2O[C@@H]2O[C@H](CO)[C@H](O)[C@H](O[C@@H](CC3CCCCC3)C(=O)O)[C@H]2OC(=O)c2ccccc2)[C@@H](O)[C@H](O)[C@@H]1O` [Product 67, (1R,3R,4R,5S)-3-[2-O-Benzoyl-3-O-((1S)-1-carboxy-2-cyclohexyl-ethyl)-(β-D-galactopyranosyl)oxy]-4-[(α-L-fucopyranosyl)oxy]-5-methyl-N-(3-{1-[4-(5-nitro-1H-indol-1-yl)butyl]-1H-1,2,3-triazol-4-yl}propyl)cyclohexanecarboxamide], the Kd was greater than 89 nM.
The same measure, in the same setting: to `C[C@@H]1O[C@@H](O[C@@H]2[C@@H](C)C[C@@H](C(=O)NCCCc3cn(CCCn4ccc5cc(N)ccc54)nn3)C[C@H]2O[C@@H]2O[C@H](CO)[C@H](O)[C@H](O[C@@H](CC3CCCCC3)C(=O)O)[C@H]2OC(=O)c2ccccc2)[C@@H](O)[C@H](O)[C@@H]1O` [Product 76, (1R,3R,4R,5S)—N-(3-{1-[3-(5-Amino-1H-indol-1-yl)propyl]-1H-1,2,3-triazol-4-yl}propyl)-3-[2-O-benzoyl-3-O-((1S)-1-carboxy-2-cyclohexyl-ethyl)-(β-D-galactopyranosyl)oxy]-4-[(α-L-fucopyranosyl)oxy]-5-methylcyclohexanecarboxamide] belongs greater than 89 nM.
Take `CC(=O)Nc1ccc2c(ccn2CCCn2cc(CCCNC(=O)[C@@H]3C[C@H](C)[C@@H](O[C@@H]4O[C@@H](C)[C@@H](O)[C@@H](O)[C@@H]4O)[C@H](O[C@@H]4O[C@H](CO)[C@H](O)[C@H](O[C@@H](CC5CCCCC5)C(=O)O)[C@H]4OC(=O)c4ccccc4)C3)nn2)c1` [Product 77, (1R,3R,4R,5S)—N-(3-{1-[3-(5-Acetamido-1H-indol-1-yl)propyl]-1H-1,2,3-triazol-4-yl}propyl)-3-[2-O-benzoyl-3-O-((1S)-1-carboxy-2-cyclohexyl-ethyl)-(β-D-galactopyranosyl)oxy]-4-[(α-L-fucopyranosyl)oxy]-5-methylcyclohexanecarboxamide]: the Kd was greater than 89 nM.
Still for that read-out and setting: to `C[C@@H]1O[C@@H](O[C@@H]2[C@@H](C)C[C@@H](C(=O)NCCCc3cn(CCCn4ccc5cc(NC(=O)COCCOCCN)ccc54)nn3)C[C@H]2O[C@@H]2O[C@H](CO)[C@H](O)[C@H](O[C@@H](CC3CCCCC3)C(=O)O)[C@H]2OC(=O)c2ccccc2)[C@@H](O)[C@H](O)[C@@H]1O` [Product 78, (1R,3R,4R,5S)—N-(3-{1-[3-(5-{2-[2-(2-Aminoethoxy)ethoxy]acetamido}-1H-indol-1-yl)propyl]-1H-1,2,3-triazol-4-yl}propyl)-3-[2-O-benzoyl-3-O-((1S)-1-carboxy-2-cyclohexyl-ethyl)-(β-D-galactopyranosyl)oxy]-4-[(α-L-fucopyranosyl)oxy]-5-methylcyclohexanecarboxamide] belongs greater than 89 nM.
